# Laboratory results from ChEMBL document CHEMBL1201862, “PubChem BioAssay data set” (2004).
# Active and inactive are the calls of the source. Unless noted, the calls are words filed in the database; no cut-off is given here.
# Experiments:
# Type in all cases: functional
# [1] = target: Kappa-type opioid receptor (Homo sapiens, UniProt P41145); test: SAR analysis of small molecule agonists of the kappa opioid receptor via a luminescent beta-arrestin assay - Set 3. [Related pubchem assays (depositor defined):AID1777, AID1785, AID1786, AID1966, AID2133, AID2136, AID2284, AID2500]
# [2] = target: Intestinal-type alkaline phosphatase (Mus musculus, UniProt P24822); test: PubChem AID 488785
# [3] = target: T1, Alkaline phosphatase, tissue-nonspecific isozyme (Homo sapiens, UniProt P05186); test: TNAP enzyme inhibition by screening hits, dose response, selectivity assay for mouse IAP inhibitor project, biochemical, human TNAP, uHTS hits (AID 488906)
# T1 sequence (P05186 whole entry): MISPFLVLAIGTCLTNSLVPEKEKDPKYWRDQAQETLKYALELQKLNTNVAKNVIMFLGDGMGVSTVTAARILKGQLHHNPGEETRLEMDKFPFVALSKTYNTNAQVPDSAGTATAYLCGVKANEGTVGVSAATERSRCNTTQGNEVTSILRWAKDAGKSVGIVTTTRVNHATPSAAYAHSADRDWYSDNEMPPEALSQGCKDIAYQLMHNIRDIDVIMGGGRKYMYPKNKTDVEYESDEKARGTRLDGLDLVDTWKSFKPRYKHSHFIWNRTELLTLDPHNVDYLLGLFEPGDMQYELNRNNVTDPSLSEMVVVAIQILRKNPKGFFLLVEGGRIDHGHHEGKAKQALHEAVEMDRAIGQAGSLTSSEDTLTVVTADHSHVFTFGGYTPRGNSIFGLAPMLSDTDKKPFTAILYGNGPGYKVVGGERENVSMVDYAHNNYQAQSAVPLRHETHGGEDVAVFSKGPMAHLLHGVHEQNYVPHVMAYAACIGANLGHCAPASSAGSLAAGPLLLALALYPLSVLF
# [4] = target: Intestinal-type alkaline phosphatase (Homo sapiens, UniProt P09923); test: inhibition of human intestinal alkaline phosphatase – biochemical, dose response (AID 488876)
# Chain of Intestinal-type alkaline phosphatase (Homo sapiens, UniProt P09923) (P09923 whole entry): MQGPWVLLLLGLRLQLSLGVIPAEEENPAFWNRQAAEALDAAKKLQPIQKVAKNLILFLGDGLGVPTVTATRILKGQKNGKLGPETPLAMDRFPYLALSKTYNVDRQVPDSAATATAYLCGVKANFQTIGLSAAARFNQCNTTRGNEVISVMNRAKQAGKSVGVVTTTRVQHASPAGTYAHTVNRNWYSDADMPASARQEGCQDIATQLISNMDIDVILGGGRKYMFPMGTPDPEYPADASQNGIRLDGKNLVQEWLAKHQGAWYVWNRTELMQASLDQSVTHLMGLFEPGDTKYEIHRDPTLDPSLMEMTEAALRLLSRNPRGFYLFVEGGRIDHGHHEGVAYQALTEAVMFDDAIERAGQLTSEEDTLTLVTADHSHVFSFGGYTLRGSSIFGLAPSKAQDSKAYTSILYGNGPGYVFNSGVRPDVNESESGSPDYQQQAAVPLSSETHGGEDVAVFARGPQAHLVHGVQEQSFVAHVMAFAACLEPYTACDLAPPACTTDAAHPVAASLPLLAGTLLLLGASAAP
# [5] = target: Sphingosine 1-phosphate receptor 1 (Homo sapiens, UniProt P21453); test: Fluorescence-based counterscreen assay for S1P4 agonists: Cell-based dose response high throughput screening assay to identify agonists of the Sphingosine 1-Phosphate Receptor 1 (S1P1). [Related pubchem assays (depositor defined):AID1509, AID1523, AID1801, AID463107, AID463118, AID463119, AID463122, AID463123, AID463129, AID463225, AID504400, AID504460]
# Chain of Sphingosine 1-phosphate receptor 1 (P21453 whole entry): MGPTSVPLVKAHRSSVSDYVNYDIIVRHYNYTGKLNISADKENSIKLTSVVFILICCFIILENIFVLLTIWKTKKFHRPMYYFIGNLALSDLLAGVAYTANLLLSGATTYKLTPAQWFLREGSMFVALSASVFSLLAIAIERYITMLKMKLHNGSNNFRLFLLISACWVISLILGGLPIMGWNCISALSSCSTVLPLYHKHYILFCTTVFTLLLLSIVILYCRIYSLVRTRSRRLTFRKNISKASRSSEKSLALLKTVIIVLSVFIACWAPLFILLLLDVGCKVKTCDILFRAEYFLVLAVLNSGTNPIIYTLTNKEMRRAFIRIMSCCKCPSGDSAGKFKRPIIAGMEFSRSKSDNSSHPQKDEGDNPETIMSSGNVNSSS
# [6] = target: T2, Sphingosine 1-phosphate receptor 4 (Homo sapiens, UniProt O95977); test: Fluorescence dose response cell-based high throughput screening assay for agonists of the Sphingosine 1-Phosphate Receptor 4 (S1P4). [Related pubchem assays: 1509 (Primary screen.), 1523 (Confirmation screen in triplicates.)]
# T2 sequence (O95977 whole entry): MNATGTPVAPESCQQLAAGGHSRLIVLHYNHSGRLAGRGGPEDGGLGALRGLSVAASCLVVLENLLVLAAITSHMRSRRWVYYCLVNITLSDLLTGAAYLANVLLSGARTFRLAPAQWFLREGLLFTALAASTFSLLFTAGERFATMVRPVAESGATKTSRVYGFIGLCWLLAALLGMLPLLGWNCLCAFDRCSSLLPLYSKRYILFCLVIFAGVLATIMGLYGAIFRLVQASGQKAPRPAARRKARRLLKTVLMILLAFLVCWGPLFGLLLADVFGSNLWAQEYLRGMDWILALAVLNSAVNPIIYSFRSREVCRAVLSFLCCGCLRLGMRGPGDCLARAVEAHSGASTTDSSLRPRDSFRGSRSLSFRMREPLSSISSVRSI
# [7] = target: Metabotropic glutamate receptor 6 (Homo sapiens, UniProt O15303); test: Modulation of the Metabotropic Glutamate Receptor mGluR4: Selectivity at mGluR6. [Related pubchem assays (depositor defined):AID2437, AID2807]
# [8] = target: Metabotropic glutamate receptor 2 (Rattus norvegicus, UniProt P31421); test: rat mGluR2 glutamate potency shift by compounds, selectivity assay for mGluR4 modulator project, cell-based (AID 2188)
# Chain of Metabotropic glutamate receptor 2 (P31421 whole entry): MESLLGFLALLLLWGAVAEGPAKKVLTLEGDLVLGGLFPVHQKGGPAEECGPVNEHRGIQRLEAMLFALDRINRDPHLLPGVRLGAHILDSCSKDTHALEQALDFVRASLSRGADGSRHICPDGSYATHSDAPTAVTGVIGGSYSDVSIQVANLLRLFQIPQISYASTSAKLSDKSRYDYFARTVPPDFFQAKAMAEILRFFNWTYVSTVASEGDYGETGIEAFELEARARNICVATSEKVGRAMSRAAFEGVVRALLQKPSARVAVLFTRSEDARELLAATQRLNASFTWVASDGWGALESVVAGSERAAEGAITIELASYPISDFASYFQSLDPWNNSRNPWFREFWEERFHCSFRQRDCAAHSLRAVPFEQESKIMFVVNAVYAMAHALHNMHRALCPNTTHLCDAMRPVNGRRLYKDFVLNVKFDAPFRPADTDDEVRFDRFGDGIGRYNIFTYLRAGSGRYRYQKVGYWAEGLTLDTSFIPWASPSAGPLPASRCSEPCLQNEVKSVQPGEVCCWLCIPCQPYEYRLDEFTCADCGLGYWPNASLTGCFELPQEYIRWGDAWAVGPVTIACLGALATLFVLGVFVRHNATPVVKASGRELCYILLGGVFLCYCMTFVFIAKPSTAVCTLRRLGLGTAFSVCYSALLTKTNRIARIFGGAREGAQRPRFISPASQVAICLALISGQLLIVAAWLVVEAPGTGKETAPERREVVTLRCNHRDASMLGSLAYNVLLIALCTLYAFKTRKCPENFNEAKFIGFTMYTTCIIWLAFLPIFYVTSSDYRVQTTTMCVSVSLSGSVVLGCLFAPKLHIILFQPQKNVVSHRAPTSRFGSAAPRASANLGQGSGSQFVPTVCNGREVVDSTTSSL
# [9] = target: Metabotropic glutamate receptor 5 (Rattus norvegicus, UniProt P31424); test: Modulation of the Metabotropic Glutamate Receptor mGluR4: Selectivity at mGluR5. [Related pubchem assays (depositor defined):AID2437, AID2807]
# Chain of Metabotropic glutamate receptor 5 (P31424 whole entry): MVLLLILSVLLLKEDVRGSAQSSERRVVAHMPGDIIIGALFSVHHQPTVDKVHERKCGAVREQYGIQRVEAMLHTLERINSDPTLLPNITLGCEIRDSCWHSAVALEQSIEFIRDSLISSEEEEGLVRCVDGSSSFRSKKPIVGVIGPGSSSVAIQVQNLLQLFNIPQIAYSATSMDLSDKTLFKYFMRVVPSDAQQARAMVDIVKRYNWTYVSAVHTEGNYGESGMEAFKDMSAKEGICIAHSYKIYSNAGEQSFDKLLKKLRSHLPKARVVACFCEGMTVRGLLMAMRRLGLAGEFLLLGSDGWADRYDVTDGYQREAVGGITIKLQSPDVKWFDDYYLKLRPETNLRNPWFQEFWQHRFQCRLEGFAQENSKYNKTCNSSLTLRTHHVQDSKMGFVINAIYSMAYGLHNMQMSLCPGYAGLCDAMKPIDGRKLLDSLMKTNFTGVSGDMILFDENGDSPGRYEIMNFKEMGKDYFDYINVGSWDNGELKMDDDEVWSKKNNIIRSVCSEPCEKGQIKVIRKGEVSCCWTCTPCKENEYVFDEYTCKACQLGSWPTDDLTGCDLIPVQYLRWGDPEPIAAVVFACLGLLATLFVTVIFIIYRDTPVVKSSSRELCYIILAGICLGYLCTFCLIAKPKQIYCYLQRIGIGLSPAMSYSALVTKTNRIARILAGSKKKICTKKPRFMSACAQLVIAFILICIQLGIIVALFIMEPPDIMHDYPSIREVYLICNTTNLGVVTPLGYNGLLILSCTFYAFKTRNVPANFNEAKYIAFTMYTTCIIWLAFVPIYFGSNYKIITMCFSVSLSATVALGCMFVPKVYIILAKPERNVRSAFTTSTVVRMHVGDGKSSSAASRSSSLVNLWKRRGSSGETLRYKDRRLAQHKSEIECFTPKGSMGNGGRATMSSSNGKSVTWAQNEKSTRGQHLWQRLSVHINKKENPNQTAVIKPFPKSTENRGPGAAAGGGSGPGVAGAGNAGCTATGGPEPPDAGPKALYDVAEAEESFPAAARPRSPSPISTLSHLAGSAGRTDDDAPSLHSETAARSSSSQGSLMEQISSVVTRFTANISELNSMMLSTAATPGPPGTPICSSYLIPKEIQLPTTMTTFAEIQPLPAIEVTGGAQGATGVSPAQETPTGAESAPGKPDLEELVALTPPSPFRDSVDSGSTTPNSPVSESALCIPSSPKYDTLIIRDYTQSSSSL
# [10] = target: Metabotropic glutamate receptor 3 (Rattus norvegicus, UniProt P31422); test: Modulation of the Metabotropic Glutamate Receptor mGluR4: Selectivity at mGluR3. [Related pubchem assays (depositor defined):AID2437, AID2807]
# [11] = target: T3, Metabotropic glutamate receptor 4 (Rattus norvegicus, UniProt P31423); test: Modulation of the Metabotropic Glutamate Receptor mGluR4: Selectivity at mGluR4. [Related pubchem assays (depositor defined):AID2437, AID2807]
# T3 sequence (P31423 whole entry): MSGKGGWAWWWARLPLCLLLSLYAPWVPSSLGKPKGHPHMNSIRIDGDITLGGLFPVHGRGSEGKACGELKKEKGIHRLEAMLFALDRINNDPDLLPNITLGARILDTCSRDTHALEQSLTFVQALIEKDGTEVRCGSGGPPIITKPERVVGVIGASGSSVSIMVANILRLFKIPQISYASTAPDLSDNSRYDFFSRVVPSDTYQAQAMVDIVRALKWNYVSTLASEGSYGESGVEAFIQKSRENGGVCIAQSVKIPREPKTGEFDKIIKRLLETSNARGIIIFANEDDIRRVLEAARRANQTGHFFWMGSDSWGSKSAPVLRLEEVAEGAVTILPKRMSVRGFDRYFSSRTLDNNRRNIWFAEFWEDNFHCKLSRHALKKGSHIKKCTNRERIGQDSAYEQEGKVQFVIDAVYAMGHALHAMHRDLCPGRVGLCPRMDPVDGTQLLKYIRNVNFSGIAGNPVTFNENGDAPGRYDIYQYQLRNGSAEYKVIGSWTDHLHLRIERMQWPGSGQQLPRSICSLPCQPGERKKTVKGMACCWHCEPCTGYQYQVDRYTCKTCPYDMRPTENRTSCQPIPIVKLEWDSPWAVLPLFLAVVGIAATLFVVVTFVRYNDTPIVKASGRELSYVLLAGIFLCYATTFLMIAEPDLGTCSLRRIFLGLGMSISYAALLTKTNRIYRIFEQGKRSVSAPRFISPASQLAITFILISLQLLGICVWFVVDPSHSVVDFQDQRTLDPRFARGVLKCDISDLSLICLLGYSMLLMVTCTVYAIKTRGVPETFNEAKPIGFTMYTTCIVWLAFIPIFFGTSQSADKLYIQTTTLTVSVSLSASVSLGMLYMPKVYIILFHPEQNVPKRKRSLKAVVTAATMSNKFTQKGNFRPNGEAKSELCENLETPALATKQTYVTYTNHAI
# [12] = target: Metabotropic glutamate receptor 8 (Rattus norvegicus, UniProt P70579); test: Modulation of the Metabotropic Glutamate Receptor mGluR4: Selectivity at mGluR8. [Related pubchem assays (depositor defined):AID2437, AID2807]
# [13] = target: T3, Metabotropic glutamate receptor 4; test: Modulation of the Metabotropic Glutamate Receptor mGluR4: Rat PAM Potency. [Related pubchem assays (depositor defined):AID2437, AID2807]
# [14] = target: Metabotropic glutamate receptor 7 (Rattus norvegicus, UniProt P35400); test: Modulation of the Metabotropic Glutamate Receptor mGluR4: Selectivity at mGluR7. [Related pubchem assays (depositor defined):AID2437, AID2807]
# Chain of Metabotropic glutamate receptor 7 (P35400 whole entry): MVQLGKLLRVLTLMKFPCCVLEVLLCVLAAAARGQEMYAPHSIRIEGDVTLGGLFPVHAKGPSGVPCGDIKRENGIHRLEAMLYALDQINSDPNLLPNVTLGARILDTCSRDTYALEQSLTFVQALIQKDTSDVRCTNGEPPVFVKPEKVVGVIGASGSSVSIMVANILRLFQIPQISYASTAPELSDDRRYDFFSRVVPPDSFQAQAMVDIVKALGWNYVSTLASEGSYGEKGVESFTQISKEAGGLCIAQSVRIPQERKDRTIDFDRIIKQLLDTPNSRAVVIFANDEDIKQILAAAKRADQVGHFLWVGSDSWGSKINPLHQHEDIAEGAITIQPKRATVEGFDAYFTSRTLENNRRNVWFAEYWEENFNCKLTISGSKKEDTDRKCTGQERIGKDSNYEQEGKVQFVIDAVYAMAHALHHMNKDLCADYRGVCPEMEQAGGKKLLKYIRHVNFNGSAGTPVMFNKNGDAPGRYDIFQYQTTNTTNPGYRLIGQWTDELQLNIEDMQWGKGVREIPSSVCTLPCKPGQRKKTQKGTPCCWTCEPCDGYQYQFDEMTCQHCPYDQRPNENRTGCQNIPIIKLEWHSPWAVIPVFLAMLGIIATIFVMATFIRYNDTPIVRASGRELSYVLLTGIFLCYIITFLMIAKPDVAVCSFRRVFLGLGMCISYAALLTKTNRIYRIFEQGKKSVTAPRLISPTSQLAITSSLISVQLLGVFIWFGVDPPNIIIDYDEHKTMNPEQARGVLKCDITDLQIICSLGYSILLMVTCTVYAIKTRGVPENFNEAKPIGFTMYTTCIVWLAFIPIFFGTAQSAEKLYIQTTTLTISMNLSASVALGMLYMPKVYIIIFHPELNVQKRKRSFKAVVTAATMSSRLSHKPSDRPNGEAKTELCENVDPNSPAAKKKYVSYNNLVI
# [15] = target: Metabotropic glutamate receptor 1 (Rattus norvegicus, UniProt P23385); test: Modulation of the Metabotropic Glutamate Receptor mGluR4: Selectivity at mGluR1. [Related pubchem assays (depositor defined):AID2437, AID2807]
smiles,measurement,setting,value
Cc1ccc2[nH]c(=O)c(CN(CCC(C)C)C(=O)c3ccccn3)cc2c1,EC50,[1],13100 nM (inactive)
NS(=O)(=O)c1cccc(NC(=O)CSc2nnc(-c3ccncc3)n2C2CC2)c1,IC50,[2],2340 nM (active)
same,IC50,[3],17100 nM (active)
same,IC50,[4],9420 nM (active)
Cc1cc(C)nc(N/N=C/c2ccc(N3CCOCC3)cc2)n1,EC50,[5],> 49800 nM (inactive)
same,EC50,[6],> 49800 nM (not active)
O=C(Nc1cccc(Cl)c1)c1ccccn1,EC50,[7],1250 nM (active)
same,EC50,[8],1470 nM (inactive)
same,EC50,[9],1240 nM (inactive)
same,EC50,[10],811 nM (inactive)
same,EC50,[11],597 nM (active)
same,EC50,[12],9140 nM (inactive)
same,EC50,[13],295 nM (active)
same,Activity EC50,[14],163000 nM
same,EC50,[15],1170 nM (inactive)
